Common to all, as to format: biochemical
For one experiment, the target named is human S1P3 receptor (Homo sapiens, UniProt Q99500). The experiment can be described thus: [γ-35S]GTP binding assay, HEK293T membranes (agonism and Schild antagonism). More on the design: expressed in transfected cells; host or cells: HEK293T, transient transfection; membranes. To be noted: for Agonist efficacy class S1P3: relative to S1P Emax. The text has this: (§1) The appropriate receptor plasmid DNA (encoding human S1P1, human S1P2, human S1P3, human S1P4, human S1P5, human LPA1, human LPA2 or human LPA3 receptors) is mixed with equal amounts of expression plasmids encoding human Gi2α (for S1P3, a mutated (C352F) rat Gi2α is used), cow β1, and cow γ2 proteins, and these DNAs are used to transfect monolayers of HEK293T cells (where ‘T’ indicates expression of the SV-40 virus large T antigen) using the calcium phosphate precipitate method (7). After about 60 hours, cells are harvested, membranes prepared, aliquoted, and stored at −70° C. until use (8).
(§2) The [γ-^35S]GTP binding assay is performed as described previously (8). Membranes containing 1-5 μg of protein are incubated in 0.1 ml of binding buffer (in mM: HEPES/50, NaCl/100, MgCl2/10, pH 7.5) containing 5 μg of saponin, 10 μM GDP, 0.1 nM [γ-^35S]GTP (1200 Ci/mmol), and indicated lipid(s) for 30 min at 30° C. and collected using a Brandel Cell Harvester (Gaithersburg, Md.). Samples are then analyzed for bound radionuclide.
(§3) Briefly, nonlinear analysis of the best-fit line generated by plotting the negative log of the EC50 values obtained from agonist dose-response curves, in the absence and presence of varying concentrations of antagonist, was plotted against the concentration of antagonist to give the Kb value.
(§4) Statistical Analysis. The EC50 and IC50 values for all dose response curves were determined by nonlinear regression analysis of all data using the Graphpad Prism© program. The error associated with the data collected is reported as the standard error of the mean (S.E.M).

The target in a further experiment is human S1P1 receptor (Homo sapiens, UniProt P21453). The description is as above. More on the design: expressed in transfected cells; host or cells: HEK293T, transient transfection; membranes. The settings on record: for EC50: -log molar concentration giving 50% of maximal [γ-35S]GTP binding, ± S.E.M., read-out: pEC50 S1P1 (converted).
Text: as §1, §2, §3, §4

The next experiment has as its target T1, S1P2 receptor (Homo sapiens, UniProt O95136).
T1 construct: expressed in transfected cells; host or cells: HEK293T, transient transfection; membranes
Kind of experiment: [γ-35S]GTP binding assay, HEK293T membranes. The settings on record: for EC50: -log molar concentration giving 50% of maximal [γ-35S]GTP binding, ± S.E.M., read-out: pEC50 S1P2 (converted).
Text: as §1, §2, §4

For another experiment, the target named is T2, human S1P4 receptor (Homo sapiens, UniProt O95977).
T2 construct: expressed in transfected cells; host or cells: HEK293T, transient transfection; membranes
T2 sequence (O95977 1-384): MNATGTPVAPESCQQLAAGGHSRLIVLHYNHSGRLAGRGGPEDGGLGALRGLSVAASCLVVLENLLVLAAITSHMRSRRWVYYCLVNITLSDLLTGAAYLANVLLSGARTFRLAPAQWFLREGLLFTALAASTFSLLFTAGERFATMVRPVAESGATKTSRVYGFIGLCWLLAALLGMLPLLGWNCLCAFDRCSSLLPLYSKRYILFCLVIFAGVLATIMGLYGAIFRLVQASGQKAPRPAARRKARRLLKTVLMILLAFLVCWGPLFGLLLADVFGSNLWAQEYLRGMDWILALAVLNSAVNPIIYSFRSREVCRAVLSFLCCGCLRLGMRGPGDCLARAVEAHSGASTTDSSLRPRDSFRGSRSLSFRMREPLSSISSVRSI
The experiment can be described thus: [γ-35S]GTP binding assay, HEK293T membranes. To be noted: -log molar concentration giving 50% of maximal [γ-35S]GTP binding; ± S.E.M.; read-out: pEC50 S1P4 (converted).
Text: as §1, §2, §4

Another experiment addresses T3, human S1P5 receptor (Homo sapiens, UniProt Q9H228).
T3 construct: expressed in transfected cells; host or cells: HEK293T, transient transfection; membranes
Kind of experiment: [γ-35S]GTP binding assay, HEK293T membranes.
Text: as §1, §2, §4

SMILES strings stand for the structures.

Chain of human S1P3 receptor (Q99500 whole entry): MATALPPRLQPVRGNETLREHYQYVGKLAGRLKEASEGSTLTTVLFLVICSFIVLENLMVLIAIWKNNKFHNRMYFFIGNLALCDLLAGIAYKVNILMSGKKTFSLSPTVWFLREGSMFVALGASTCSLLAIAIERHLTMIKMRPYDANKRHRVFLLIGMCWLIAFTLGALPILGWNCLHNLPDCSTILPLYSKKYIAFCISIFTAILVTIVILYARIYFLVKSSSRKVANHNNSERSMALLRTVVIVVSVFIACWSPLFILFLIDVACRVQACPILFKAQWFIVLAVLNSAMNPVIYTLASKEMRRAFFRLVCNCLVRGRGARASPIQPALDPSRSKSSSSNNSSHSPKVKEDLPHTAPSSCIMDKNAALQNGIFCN
T1 sequence (O95136 whole entry): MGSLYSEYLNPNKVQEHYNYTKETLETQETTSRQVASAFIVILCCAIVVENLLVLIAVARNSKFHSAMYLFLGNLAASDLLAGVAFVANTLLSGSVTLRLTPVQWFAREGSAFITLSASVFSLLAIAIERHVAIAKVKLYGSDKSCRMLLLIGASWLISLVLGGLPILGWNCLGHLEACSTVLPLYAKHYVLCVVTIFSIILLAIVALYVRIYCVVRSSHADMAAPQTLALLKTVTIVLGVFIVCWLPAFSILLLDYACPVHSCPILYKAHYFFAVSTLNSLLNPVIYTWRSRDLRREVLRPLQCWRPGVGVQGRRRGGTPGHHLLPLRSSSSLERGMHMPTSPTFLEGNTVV
Chain of human S1P1 receptor (P21453 whole entry): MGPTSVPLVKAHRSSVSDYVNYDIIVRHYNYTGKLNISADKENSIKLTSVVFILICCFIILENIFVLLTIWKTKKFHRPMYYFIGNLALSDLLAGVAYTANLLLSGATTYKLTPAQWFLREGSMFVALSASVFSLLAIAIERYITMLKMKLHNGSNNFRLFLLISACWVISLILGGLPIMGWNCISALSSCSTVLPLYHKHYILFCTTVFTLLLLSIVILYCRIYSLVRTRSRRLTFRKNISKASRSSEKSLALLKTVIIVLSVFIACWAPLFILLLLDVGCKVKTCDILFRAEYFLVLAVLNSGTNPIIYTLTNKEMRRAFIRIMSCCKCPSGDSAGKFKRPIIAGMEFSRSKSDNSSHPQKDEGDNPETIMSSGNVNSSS
T3 sequence (Q9H228 whole entry): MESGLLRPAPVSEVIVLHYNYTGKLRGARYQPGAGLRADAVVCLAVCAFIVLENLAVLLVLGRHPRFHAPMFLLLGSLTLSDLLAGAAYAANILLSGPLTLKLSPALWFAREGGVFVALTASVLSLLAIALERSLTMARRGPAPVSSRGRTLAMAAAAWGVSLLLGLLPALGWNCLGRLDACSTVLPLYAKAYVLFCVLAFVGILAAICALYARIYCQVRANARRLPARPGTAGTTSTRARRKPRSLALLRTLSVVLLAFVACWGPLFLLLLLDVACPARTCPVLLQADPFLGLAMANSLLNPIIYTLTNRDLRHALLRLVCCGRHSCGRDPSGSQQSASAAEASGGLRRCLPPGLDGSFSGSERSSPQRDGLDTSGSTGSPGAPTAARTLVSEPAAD

Turning to `CCCCCCCCCc1cccc(NC(=O)[C@H](N)COP(=O)(O)O)c1` [VPC23079], the “Agonist efficacy class S1P3” value on human S1P3 receptor is listed as “na (no agonist activity (<10% of S1P Emax))”. Also, the “Agonist activity at the S1P1 receptor” value at human S1P1 receptor is reported as “agonists (or partial agonists)”. The values for the EC50 on human S1P1 receptor, at S1P2 receptor and on human S1P4 receptor were 676 nM, > 10 µM and 1170 nM, respectively. The “Agonist efficacy class S1P5” value on human S1P5 receptor (relative to S1P Emax) is listed as “na (no agonist activity (<10% of S1P Emax))”.

For `CCCCCCCCc1cccc(NC(=O)[C@@H](N)COP(=O)(O)O)c1` [VPC25027], the “Agonist efficacy class S1P3” value on human S1P3 receptor is recorded as “na (no agonist activity (<10% of S1P Emax))”. Besides, on human S1P1 receptor, the “Agonist activity at the S1P1 receptor” value is reported as “agonists (or partial agonists)” and the EC50 is 2.24 nM. Further, the “Agonist efficacy class S1P1” value at human S1P1 receptor (relative to S1P Emax) was “(pa) (partial agonist activity (50-85% of S1P Emax))”. The “Agonist efficacy class S1P2” value at S1P2 receptor (relative to S1P Emax) is on record as “na (no agonist activity (<10% of S1P Emax))”.

Take `CCCCCCCCCCc1cccc(NC(=O)[C@H](N)COP(=O)(O)O)c1` [VPC23069]: the EC50 on human S1P3 receptor (-log molar concentration giving 50% of maximal [γ-35S]GTP binding, ± S.E.M., read-out: pEC50 S1P3 (converted)) was 1910 nM; on human S1P1 receptor it was 81.3 nM; on S1P2 receptor, > 10 µM; at human S1P4 receptor, 851 nM; on human S1P5 receptor (-log molar concentration giving 50% of maximal [γ-35S]GTP binding, ± S.E.M., read-out: pEC50 S1P5 (converted)) it was > 10 µM. Also, at human S1P3 receptor, the “Agonist efficacy class S1P3” value is listed as “(wpa) (weak partial agonist activity (10-50% of S1P Emax))”. Moreover, the “Agonist activity at the S1P1 receptor” value at human S1P1 receptor is on record as “agonists (or partial agonists)”.

(Values after US7888527B2 (University of Virginia Patent Foundation, priority 2004, dated 2011).)
